# Experiments:
# Format in all cases: in vivo
# Settings in all cases: applied in granular form; pre-plant and final test results collectively
# Dorylaimida nematodes = assay: Nematicidal activity of granules in infested silt loam pots: Dorylaimida nematodes
# Method: (§1) The soil used in this study was naturally infested with three species of nematodes, one of which was deleterious, and the other two beneficial, and observations were made of both the survival of the nematodes and the growth of the soybean plants.
# (§2) The hydrogen cyanamide granules were prepared by impregnating PROFILE granules (15 mesh) with DORMEX (50% hydrogen cyanamide in aqueous solution with phosphate buffer), and drying the moist granules on trays at 20° C. for 24 hours to achieve granules containing hydrogen cyanamide at a concentration of 25% by weight. Planting pots measuring 10 cm in diameter were used. Each pot contained 1 kg of silt loam from a cotton field, pH 6.2, CEC<10 meq/100 g soil, organic matter<1.0%, the soil being severely infested with the deleterious reniform nematode (Rotylenchulus reniformis). […]
# (§3) After the polyethylene bags were removed, each pot was planted with Hutcheson soybean seeds at 5 seeds per pot, and the seeds were allowed to germinate and the plants to grow for 39 days. […] The number of surviving nematodes in each pot were determined, as were the number of nematodes in the root systems, the weights of both the fresh shoots and the roots, and the shoot height. […] Fischer's Least Significant Difference at p 0.05 was calculated when appropriate. […]
# [1] = test system: reniform nematode (Rotylenchulus reniformis); assay: Nematicidal activity of granules in infested silt loam pots: reniform nematodes
# Method: as §1, §2, §3
# [2] = test system: microbivorous (beneficial) nematodes; assay: Nematicidal activity of granules in infested silt loam pots: microbivorous nematodes
# Method: as §1, §2, §3
smiles,measurement,setting,value
N#CN [hydrogen cyanamide],populations of the Dorylaimida nematodes,Dorylaimida nematodes,affected
same,nematicidal activity against the reniform nematodes,[1],without loss of nematicidal activity
same,populations of the microbivorous nematodes,[2],not significantly affected
